How the values were obtained:
human TLR7 = human TLR7 (Homo sapiens (Human), UniProt Q9NYK1); assay: TLR7 inhibition reporter assay (HEK-Blue SEAP); format: cell-based; settings: HEK-Blue cells overexpressing human TLR7, SEAP reporter, gardiquimod 7.5 μM
human TLR8 = human TLR8 (Homo sapiens (Human), UniProt Q9NR97); assay: TLR8 inhibition reporter assay (HEK-Blue SEAP); settings: read-out: TLR8 IC50; HEK-Blue cells overexpressing human TLR8, SEAP reporter, R848 15.9 μM;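 further: SEAP driven by IFN-β minimal promoter carrying NF-κB and AP-1 sites, compounds dosed 0.05 nM to 50 µM for 22 h, inhibition scaled between agonist-plus-DMSO and reference-inhibitor wells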
Chain of human TLR8 (Q9NR97 27-1041): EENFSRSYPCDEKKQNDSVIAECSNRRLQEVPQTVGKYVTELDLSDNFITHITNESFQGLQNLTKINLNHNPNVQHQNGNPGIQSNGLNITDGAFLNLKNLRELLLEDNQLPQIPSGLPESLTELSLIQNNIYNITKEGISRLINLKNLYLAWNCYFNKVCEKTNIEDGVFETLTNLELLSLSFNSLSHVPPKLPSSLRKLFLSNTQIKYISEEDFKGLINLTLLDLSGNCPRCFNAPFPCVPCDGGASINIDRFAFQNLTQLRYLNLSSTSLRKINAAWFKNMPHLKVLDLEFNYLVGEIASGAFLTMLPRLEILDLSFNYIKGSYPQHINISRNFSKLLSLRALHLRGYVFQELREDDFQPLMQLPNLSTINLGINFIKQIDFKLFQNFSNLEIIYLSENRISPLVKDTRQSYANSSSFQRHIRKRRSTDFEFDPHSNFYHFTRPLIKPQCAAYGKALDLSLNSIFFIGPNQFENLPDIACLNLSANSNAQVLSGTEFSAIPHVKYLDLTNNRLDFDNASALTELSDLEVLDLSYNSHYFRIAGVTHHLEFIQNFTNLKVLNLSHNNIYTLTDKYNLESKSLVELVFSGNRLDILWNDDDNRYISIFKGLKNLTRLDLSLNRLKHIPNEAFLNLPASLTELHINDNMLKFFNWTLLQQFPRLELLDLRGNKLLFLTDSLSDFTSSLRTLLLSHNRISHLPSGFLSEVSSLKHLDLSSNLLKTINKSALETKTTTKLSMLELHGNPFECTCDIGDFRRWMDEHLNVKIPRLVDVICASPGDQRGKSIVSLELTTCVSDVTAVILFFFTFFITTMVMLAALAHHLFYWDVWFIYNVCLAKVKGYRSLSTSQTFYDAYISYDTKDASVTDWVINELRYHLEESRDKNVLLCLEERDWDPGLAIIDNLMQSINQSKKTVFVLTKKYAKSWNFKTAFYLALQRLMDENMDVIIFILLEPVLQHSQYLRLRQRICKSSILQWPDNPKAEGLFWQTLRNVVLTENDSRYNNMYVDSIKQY
Protocol: HEK-Blue™-cells (Invivogen) overexpressing human TLR7, TLR8 or TLR9 receptors were used for screening inhibitors of these receptors using an inducible SEAP (secreted embryonic alkaline phosphatase) reporter gene under the control of the IFN-β minimal promoter fused to five NF-κB and AP-1-binding sites. Briefly, cells are seeded into Greiner 384 well plates (15000 cells per well for TLR7, 20,000 for TLR8 and 25,000 for TLR9) and then treated with test compounds in DMSO to yield a final dose response concentration range of 0.05 nM-50 μM. After a 30 minute compound pre-treatment at room temperature, the cells are then stimulated with a TLR7 ligand (gardiquimod at a final concentration of 7.5 μM), TLR8 ligand (R848 at a final concentration of 15.9 μM) or TLR9 ligand (ODN2006 at a final concentration of 5 nM) to activate NF-κB and AP-1 which induce the production of SEAP. After a 22 hour incubation at 37° C., 5% CO2, SEAP levels are determined with the addition of HEK-Blue™ Detection reagent (Invivogen), a cell culture medium that allows for detection of SEAP, according to manufacturer's specifications.

human TLR9 = human TLR9 (Homo sapiens (Human), UniProt Q9NR96); assay: TLR9 inhibition reporter assay (HEK-Blue SEAP); settings: read-out: TLR9 IC50; HEK-Blue cells overexpressing human TLR9, SEAP reporter, ODN2006 5 nM;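 further: SEAP driven by an IFN-β minimal promoter with NF-κB and AP-1 sites, read after 22 h, compounds dosed 0.05 nM–50 µM, inhibition scaled between agonist plus DMSO and reference-inhibitor wells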
Chain of human TLR9 (Q9NR96 26-1032): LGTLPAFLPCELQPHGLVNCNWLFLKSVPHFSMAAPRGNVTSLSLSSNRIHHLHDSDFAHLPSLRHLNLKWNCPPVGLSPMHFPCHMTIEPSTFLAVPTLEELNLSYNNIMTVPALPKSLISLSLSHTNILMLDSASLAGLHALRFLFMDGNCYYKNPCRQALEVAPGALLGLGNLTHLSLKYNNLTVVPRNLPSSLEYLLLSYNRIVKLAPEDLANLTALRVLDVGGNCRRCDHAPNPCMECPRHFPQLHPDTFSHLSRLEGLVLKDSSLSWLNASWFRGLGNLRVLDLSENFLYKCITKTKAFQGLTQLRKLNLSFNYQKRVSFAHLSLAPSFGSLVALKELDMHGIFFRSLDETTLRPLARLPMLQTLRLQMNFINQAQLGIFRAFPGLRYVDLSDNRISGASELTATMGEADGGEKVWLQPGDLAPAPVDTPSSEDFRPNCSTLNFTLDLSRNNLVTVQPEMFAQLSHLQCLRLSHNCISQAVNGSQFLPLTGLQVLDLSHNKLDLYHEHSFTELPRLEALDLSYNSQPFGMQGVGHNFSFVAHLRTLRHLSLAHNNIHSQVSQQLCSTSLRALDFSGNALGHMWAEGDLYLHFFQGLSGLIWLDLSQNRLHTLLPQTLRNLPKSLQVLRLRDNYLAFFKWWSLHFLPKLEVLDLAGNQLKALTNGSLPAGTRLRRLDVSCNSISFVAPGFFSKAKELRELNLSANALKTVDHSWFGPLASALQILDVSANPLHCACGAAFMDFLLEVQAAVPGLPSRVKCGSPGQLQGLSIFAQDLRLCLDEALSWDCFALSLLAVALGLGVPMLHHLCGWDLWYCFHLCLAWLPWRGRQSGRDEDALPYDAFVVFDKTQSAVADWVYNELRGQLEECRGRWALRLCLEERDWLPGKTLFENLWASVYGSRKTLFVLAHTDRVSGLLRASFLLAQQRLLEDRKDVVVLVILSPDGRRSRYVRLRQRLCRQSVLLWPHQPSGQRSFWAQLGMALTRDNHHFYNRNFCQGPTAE

Chain of human TLR7 (Q9NYK1 27-1049): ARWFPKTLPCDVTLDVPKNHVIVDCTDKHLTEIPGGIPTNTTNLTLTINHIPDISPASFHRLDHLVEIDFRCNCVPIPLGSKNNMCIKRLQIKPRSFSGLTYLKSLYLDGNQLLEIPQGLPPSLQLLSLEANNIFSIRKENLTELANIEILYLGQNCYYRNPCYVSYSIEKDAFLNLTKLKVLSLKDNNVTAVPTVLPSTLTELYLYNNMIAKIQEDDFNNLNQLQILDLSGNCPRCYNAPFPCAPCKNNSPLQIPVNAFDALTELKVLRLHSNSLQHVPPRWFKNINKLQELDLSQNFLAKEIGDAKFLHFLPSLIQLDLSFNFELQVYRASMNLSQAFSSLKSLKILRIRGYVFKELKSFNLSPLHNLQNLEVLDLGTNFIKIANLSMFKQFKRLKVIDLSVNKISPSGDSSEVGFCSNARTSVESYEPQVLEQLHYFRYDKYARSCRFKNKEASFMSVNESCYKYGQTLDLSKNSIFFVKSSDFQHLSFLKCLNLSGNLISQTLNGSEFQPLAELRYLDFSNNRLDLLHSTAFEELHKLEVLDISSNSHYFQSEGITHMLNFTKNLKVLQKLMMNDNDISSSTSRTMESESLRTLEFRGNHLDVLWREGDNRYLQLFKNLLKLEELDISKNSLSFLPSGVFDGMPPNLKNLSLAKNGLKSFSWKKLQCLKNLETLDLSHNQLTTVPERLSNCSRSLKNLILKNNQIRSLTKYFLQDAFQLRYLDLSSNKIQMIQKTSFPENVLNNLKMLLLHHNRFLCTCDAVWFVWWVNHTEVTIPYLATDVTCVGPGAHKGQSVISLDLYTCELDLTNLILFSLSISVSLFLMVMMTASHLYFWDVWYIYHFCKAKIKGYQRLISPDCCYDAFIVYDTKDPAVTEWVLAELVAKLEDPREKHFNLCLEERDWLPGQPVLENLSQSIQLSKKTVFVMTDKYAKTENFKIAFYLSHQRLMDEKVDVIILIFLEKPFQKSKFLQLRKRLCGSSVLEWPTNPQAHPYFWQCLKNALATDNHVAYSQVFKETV

SMILES	IC50 (human TLR7)	IC50 (human TLR8)	IC50 (human TLR9)
COc1cc(-c2[nH]c3ccc(C4CCC(N(CC#N)CC#N)C4)nc3c2C(C)C)cn2ncnc12 (stereo not drawn) [Example 713]	6.2 nM	28 nM	4880 nM
COc1cc(-c2[nH]c3ccc(C4CCC(N(CCS(C)(=O)=O)CCS(C)(=O)=O)C4)nc3c2C(C)C)cn2ncnc12 (stereo not drawn) [Example 717]	1060 nM	1100 nM	2520 nM
COc1cc(-c2[nH]c3ccc(C4CCC(NCC5(C)COC5)C4)nc3c2C(C)C)cn2ncnc12 (stereo not drawn) [Example 718]	9.6 nM	3.6 nM	6210 nM
CNC(=O)CNC1CCC(c2ccc3[nH]c(-c4cc(OC)c5ncnn5c4)c(C(C)C)c3n2)C1 (stereo not drawn) [Example 719]	2.8 nM	7 nM	2600 nM
COc1cc(-c2[nH]c3ccc(C4CCC(N(CC(N)=O)CC(N)=O)C4)nc3c2C(C)C)cn2ncnc12 (stereo not drawn) [Example 720]	13 nM	94 nM	20300 nM
COc1cc(-c2[nH]c3ccc(C4CCC(N(CC(=O)N(C)C)CC(=O)N(C)C)C4)nc3c2C(C)C)cn2ncnc12 (stereo not drawn) [Example 722]	6.5 nM	46 nM	18500 nM
COc1cc(-c2[nH]c3ccc(C4CCC(N(CCS(C)(=O)=O)CCS(C)(=O)=O)C4)nc3c2C(C)C)cn2ncnc12 (stereo not drawn) [Example 726]	1360 nM	2090 nM	39400 nM
COc1cc(-c2[nH]c3ccc(C4CCC(NC5CCOCC5)C4)nc3c2C(C)C)cn2ncnc12 (stereo not drawn) [Example 727]	3.6 nM	3.2 nM	3350 nM
COc1cc(-c2[nH]c3ccc(C4CCC(N(CC#N)CC#N)C4)nc3c2C(C)C)cn2ncnc12 (stereo not drawn) [Example 730]	3.3 nM	23 nM	10500 nM
COc1cc(-c2[nH]c3cc(C)c(C(=O)NC4CCN(C(C)C)CC4)nc3c2C(C)C)cn2ncnc12 [Example 731]	4.6 nM	15 nM	1640 nM
COc1cc(-c2[nH]c3cc(C)c(C(=O)N(C)CCN(C)C)nc3c2C(C)C)cn2ncnc12 [Example 732]	10 nM	70 nM	4830 nM
COc1cc(-c2[nH]c3cc(C)c(C(=O)N4CCN(C(C)=O)CC4)nc3c2C(C)C)cn2ncnc12 [Example 733]	53 nM	1010 nM	> 50000 nM
COc1cc(-c2[nH]c3cc(C)c(C(=O)N(C)CCC(F)(F)F)nc3c2C(C)C)cn2ncnc12 [Example 734]	26 nM	252 nM	> 50000 nM
Cc1cc(-c2[nH]c3ccc(-c4cnn(C5CCNCC5)c4)nc3c2C(C)C)cn2ncnc12 [Example 735]	25 nM	61 nM	262 nM
Cc1cc(-c2[nH]c3ccc(-c4cnn(CCN5CCOCC5)c4)nc3c2C(C)C)cn2ncnc12 [Example 736]	631 nM	269 nM	> 50000 nM
Cc1c(-c2[nH]c3ccc(N4CC5(CN(C)C5)C4)nc3c2C(C)C)cn2ncnc2c1C [Example 741, 6-(3-isopropyl-5-(6-methyl-2,6-diazaspiro[3.3]heptan-2-yl)-1H-pyrrolo[3,2-b]pyridin-2-yl)-7,8-dimethyl-[1,2,4]triazolo[1,5-a]pyridine]	1.9 nM	6.5 nM	3030 nM
Cc1c(-c2[nH]c3ccc(N4CC5(CN(CC(=O)N(C)C)C5)C4)nc3c2C(C)C)cn2ncnc2c1C [Example 742, 2-(6-(2-(7,8-dimethyl-[1,2,4]triazolo[1,5-a]pyridin-6-yl)-3-isopropyl-1H-pyrrolo[3,2-b]pyridin-5-yl)-2,6-diazaspiro[3.3]heptan-2-yl)-N,N-dimethylacetamide]	2.9 nM	3.1 nM	4580 nM
Cc1c(-c2[nH]c3ccc(N4CC5(CN(C(=O)CN(C)C)C5)C4)nc3c2C(C)C)cn2ncnc2c1C [Example 743, 1-(6-(2-(7,8-dimethyl-[1,2,4]triazolo[1,5-a]pyridin-6-yl)-3-isopropyl-1H-pyrrolo[3,2-b]pyridin-5-yl)-2,6-diazaspiro[3.3]heptan-2-yl)-2-(dimethylamino)ethan-1-one]	3.6 nM	8.4 nM	1880 nM
Cc1c(-c2[nH]c3ccc(N4[C@@H]5CC[C@H]4CN(C(=O)CN(C)C)C5)nc3c2C(C)C)cn2ncnc2c1C [Example 747]	0.59 nM	4.1 nM	7380 nM
Cc1c(-c2[nH]c3ccc(N4[C@@H]5CC[C@H]4CN(CCS(C)(=O)=O)C5)nc3c2C(C)C)cn2ncnc2c1C [Example 748]	7.5 nM	15 nM	37900 nM

Further lines, results first:

IC50 (human TLR7)	IC50 (human TLR8)	IC50 (human TLR9)	SMILES
2 nM	3.2 nM	4660 nM	COc1cc(-c2[nH]c3ccc(C4CCC(NC5CCOCC5)C4)nc3c2C(C)C)cn2ncnc12 (stereo not drawn) [Example 710]
2 nM	2.9 nM	1700 nM	COc1cc(-c2[nH]c3ccc(C4CCC(NCC5(C)COC5)C4)nc3c2C(C)C)cn2ncnc12 (stereo not drawn) [Example 711]
1.9 nM	11 nM	3140 nM	COc1cc(-c2[nH]c3ccc(C4CCC(NC(=O)CN(C)C)C4)nc3c2C(C)C)cn2ncnc12 (stereo not drawn) [Example 712]
1.8 nM	9.3 nM	203 nM	COc1cc(-c2[nH]c3ccc(C4CCC(NC(=O)C5CCN(C)CC5)C4)nc3c2C(C)C)cn2ncnc12 (stereo not drawn) [Example 714]
1.7 nM	11 nM	8710 nM	COc1cc(-c2[nH]c3ccc(C4CCC(NC5COC5)C4)nc3c2C(C)C)cn2ncnc12 (stereo not drawn) [Example 715]
0.74 nM	6.7 nM	2530 nM	COc1cc(-c2[nH]c3ccc(C4CCC(NCC#N)C4)nc3c2C(C)C)cn2ncnc12 (stereo not drawn) [Example 716]
0.41 nM	0.53 nM	982 nM	COc1cc(-c2[nH]c3ccc(C4CCC(NC5CCOCC5)C4)nc3c2C(C)C)cn2ncnc12 (stereo not drawn) [Example 721]
0.99 nM	2.4 nM	4390 nM	COc1cc(-c2[nH]c3ccc(C4CCC(NC(C)C)C4)nc3c2C(C)C)cn2ncnc12 (stereo not drawn) [Example 723]
0.63 nM	2 nM	2190 nM	COc1cc(-c2[nH]c3ccc(C4CCC(NC(C)C5CC5)C4)nc3c2C(C)C)cn2ncnc12 (stereo not drawn) [Example 724]
0.62 nM	1.9 nM	2060 nM	CNC(=O)CNC1CCC(c2ccc3[nH]c(-c4cc(OC)c5ncnn5c4)c(C(C)C)c3n2)C1 (stereo not drawn) [Example 725]
0.74 nM	0.67 nM	3540 nM	COc1cc(-c2[nH]c3ccc(C4CCC(NCC5(C)COC5)C4)nc3c2C(C)C)cn2ncnc12 (stereo not drawn) [Example 728]
1.1 nM	1.3 nM	1940 nM	COc1cc(-c2[nH]c3ccc(C4CCC(NC5CCOC(C)(C)C5)C4)nc3c2C(C)C)cn2ncnc12 (stereo not drawn) [Example 729]
0.59 nM	0.55 nM	7770 nM	Cc1c(-c2[nH]c3ccc(N4C[C@@H](C)NC[C@@H]4C)nc3c2C(C)C)cn2ncnc2c1C [Example 737, 6-(5-((2S,5R)-2,5-dimethylpiperazin-1-yl)-3-isopropyl-1H-pyrrolo[3,2-b]pyridin-2-yl)-7,8-dimethyl-[1,2,4]triazolo[1,5-a]pyridine]
0.46 nM	0.89 nM	6230 nM	Cc1c(-c2[nH]c3ccc(N4C[C@@H](C)N(C(=O)CN5CCCC5)C[C@@H]4C)nc3c2C(C)C)cn2ncnc2c1C [Example 738, 1-((2R,5S)-4-(2-(7,8-dimethyl-[1,2,4]triazolo[1,5-a]pyridin-6-yl)-3-isopropyl-1H-pyrrolo[3,2-b]pyridin-5-yl)-2,5-dimethylpiperazin-1-yl)-2-(pyrrolidin-1-yl)ethan-1-one]
0.85 nM	1.6 nM	5320 nM	Cc1c(-c2[nH]c3ccc(N4C[C@@H](C)N(C(=O)CCN5CCCC5)C[C@@H]4C)nc3c2C(C)C)cn2ncnc2c1C [Example 739, 1-((2R,5S)-4-(2-(7,8-dimethyl-[1,2,4]triazolo[1,5-a]pyridin-6-yl)-3-isopropyl-1H-pyrrolo[3,2-b]pyridin-5-yl)-2,5-dimethylpiperazin-1-yl)-3-(pyrrolidin-1-yl)propan-1-one]
2.2 nM	5.1 nM	623 nM	Cc1c(-c2[nH]c3ccc(N4CC5(CNC5)C4)nc3c2C(C)C)cn2ncnc2c1C [Example 740, 6-(3-isopropyl-5-(2,6-diazaspiro[3.3]heptan-2-yl)-1H-pyrrolo[3,2-b]pyridin-2-yl)-7,8-dimethyl-[1,2,4]triazolo[1,5-a]pyridine]
2 nM	7.1 nM	3060 nM	CCN1CC2(C1)CN(c1ccc3[nH]c(-c4cn5ncnc5c(C)c4C)c(C(C)C)c3n1)C2 [Example 744, 6-(5-(6-ethyl-2,6-diazaspiro[3.3]heptan-2-yl)-3-isopropyl-1H-pyrrolo[3,2-b]pyridin-2-yl)-7,8-dimethyl-[1,2,4]triazolo[1,5-a]pyridine]
2.2 nM	5.8 nM	2450 nM	Cc1c(-c2[nH]c3ccc(C4CC5(CNC5)C4)nc3c2C(C)C)cn2ncnc2c1C [Example 745, 6-(3-isopropyl-5-(2-azaspiro[3.3]heptan-6-yl)-1H-pyrrolo[3,2-b]pyridin-2-yl)-7,8-dimethyl-[1,2,4]triazolo[1,5-a]pyridine]
1.1 nM	10 nM	3110 nM	Cc1c(-c2[nH]c3ccc(C4CC5(C4)CN(C(=O)CCN(C)C)C5)nc3c2C(C)C)cn2ncnc2c1C [Example 746, 1-(6-(2-(7,8-dimethyl-[1,2,4]triazolo[1,5-a]pyridin-6-yl)-3-isopropyl-1H-pyrrolo[3,2-b]pyridin-5-yl)-2-azaspiro[3.3]heptan-2-yl)-3-(dimethylamino)propan-1-one]

— patent publication US10544143B2, “4-azaindole compounds” (BRISTOL-MYERS SQUIBB COMPANY, priority 2017, dated 2020)
